We go through 58 compounds from patent US7179832B2, “Glycogen synthase kinase 3β inhibitor, composition and process for the preparation thereof” (Crystalgenomics, Inc., priority 2003, dated 2007).

pIC50: −log10 of the molar value. Where only a bound is given, the exact number is not on record here.

Chain of GSK-3β (P49841 whole entry): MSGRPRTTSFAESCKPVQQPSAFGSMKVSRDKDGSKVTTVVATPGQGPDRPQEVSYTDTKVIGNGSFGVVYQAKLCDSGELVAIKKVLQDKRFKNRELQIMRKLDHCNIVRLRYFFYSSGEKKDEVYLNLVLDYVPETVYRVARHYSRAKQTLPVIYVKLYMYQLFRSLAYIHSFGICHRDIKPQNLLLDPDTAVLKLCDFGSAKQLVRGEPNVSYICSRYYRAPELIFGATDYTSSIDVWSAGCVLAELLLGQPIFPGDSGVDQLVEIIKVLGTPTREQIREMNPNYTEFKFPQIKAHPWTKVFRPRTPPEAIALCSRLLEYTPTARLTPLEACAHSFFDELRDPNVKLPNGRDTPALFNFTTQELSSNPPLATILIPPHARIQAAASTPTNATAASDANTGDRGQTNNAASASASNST

The target of the first test is GSK-3β (Homo sapiens, UniProt P49841). As to the kind of experiment: Assay for GSK-3β inhibiting activity (32P-ATP, phospho-CREB peptide substrate, filter paper, CPM). It is filed as biochemical. Particulars: GSK-3β inhibiting activity; 100 nM GSK-3β protein, 100 μM phospho-CREB peptide, 100 μM ATP, 30° C. for 1 hour; read-out: IC50. Here is the method:
Assay for GSK-3β inhibiting activity
First, PCR (polymerase chain reaction) was carried out using human DNA as a template as well as primers which were designed to correspond to the 3′- and 5′ ends of the polynucleotide coding human GSK-3β gene (Genbank Accession No.: L33801). The BamH1/XhoI fragment of the amplified PCR product thus obtained was inserted into the pGex vector between the BamH1 and XhoI sites, and the vector obtained was transformed into E. coli BL21(DE3). The transformed cells thus obtained was incubated in […] (1% Bacto-trypton, 0.5% yeast extract, 1% NaCl) containing ampicillin ([…]) until the optical density at 600 nm reached about 0.5. The cultured mixture was cooled to 18° C. and isopropyl β-D-thiogalacto-pyranoside (IPTG) was added thereto to a final concentration of 0.5 mM. After 16 hours, the resultant was centrifuged at 10,000×g for 10 min, the collected cells were suspended in a buffer solution (30 mM Tris-HCl (pH 7.5), 100 mM NaCl, 5% glycerol, 2 mM DTT) and the cells were disrupted using Sonic Dismembrator (Fisher, U.S.A.) in a ice bath. The resulting solution was centrifuged at 16,000 rpm for 30 minutes. […] The purified GSK-3β protein was diluted in a buffer solution (20 mM HEPES (pH 7.5), 5% glycerol, 2 mM DTT) to a final concentration of 50 mM NaCl and the resulting solution was subjected to mono S column chromatography (eluent: linear gradient from 0M to 1M NaCl buffer) using mono S column (Pharmacia Biotech, U.S.A.) equilibrated in the same buffer solution to obtain GSK-3β protein.
The reaction was stopped by adding 5 μl of 5% phosphoric acid to 25 μl of the resulting solution. The resulting mixture was centrifuged at 15,000 rpm for 10 min, 20 μl of the supernatant was added dropwise to Whatman p81 filter paper, and then, the resulting filter paper was washed with 0.5% phosphate buffer for 10 min. The filter paper was further washed 3 times and the enzymatic activity was determined by examining the extent of phospho-CREB peptide phosphorylation which is represented by the unit of count per minute (CPM), measured with a β-counter (Packard, USA).
The GSK-3β inhibiting activity was then calculated in accordance with the following equation:
[formula] wherein the blank represents a value obtained without the use of the enzyme and the compound of the present invention, and the control, in the absence of the compound of the present invention.
Take `CC(=O)Nc1ccc(CCNC(=O)c2ccc(O)c3[nH]c(-c4ccc(F)cc4)nc23)cc1` [Compound 117]: the pIC50 was 7.52. Same read-out and setting: with `Cc1nccn1CCCNC(=O)c1ccc(O)c2[nH]c(-c3ccc(F)cc3)nc12` [Compound 188] the figure was 8.70. Still for that read-out and setting: with `CCCCNC(=O)c1ccc(O)c2[nH]c(-c3ccc(Cl)cc3)nc12` [Compound 168] the figure was under 6.00. As for `Nc1ccc(NC(=O)c2ccc(O)c3[nH]c(-c4ccc(Cl)cc4Cl)nc23)cc1` [Compound 25], the pIC50 was under 6.00.

In the case of `CCN1CCN(CC(=O)Nc2ccc(CCNC(=O)c3ccc(O)c4[nH]c(-c5ccc(F)cc5Cl)nc34)cc2)CC1` [Compound 157], the pIC50 was 6.31.

For the compound `O=C(Nc1ccc(CCNS(=O)(=O)c2cccs2)cc1)c1ccc(O)c2[nH]c(-c3ccc(Cl)cc3)nc12` [Compound 19], the pIC50 is under 6.00. Consider `CCN(CC)CC(=O)Nc1ccc(CCNC(=O)c2ccc(O)c3[nH]c(-c4ccc(F)cc4Cl)nc23)cc1` [Compound 159], for which the pIC50 was 6.17. On the same count and under the same terms, with `Cc1cn(CCCNC(=O)c2ccc(O)c3[nH]c(-c4ccc(Cl)cc4Cl)nc23)cn1` [Compound 181] the figure was 7.52; with `O=C(NC1CCC(O)CC1)c1ccc(O)c2[nH]c(-c3ccccc3)nc12` (stereo not shown) [Compound 5], 6.52. The same measure, in the same setting: next, `O=C(NCCc1ccccc1O)c1ccc(O)c2[nH]c(-c3ccc(Cl)cc3)nc12` [Compound 96]: 7.66. `O=C(NCc1ccccc1)c1ccc(O)c2[nH]c(-c3ccc(Cl)cc3)nc12` [Compound 52]: the pIC50 is under 6.00. Still for that read-out and setting: next, `O=C(Nc1ccc(CCN2C(=O)c3ccccc3C2=O)cc1)c1ccc(O)c2[nH]c(-c3ccccc3)nc12` [Compound 11]: under 5.30; `Cc1ccc(S(=O)(=O)Nc2ccc(CCNC(=O)c3ccc(O)c4[nH]c(-c5ccccc5)nc34)cc2)cc1` [Compound 65]: 7.22. Still for that read-out and setting: next, `O=C(NCCc1ccc([N+](=O)[O-])cc1)c1ccc(O)c2[nH]c(-c3ccccc3)nc12` [Compound 59]: 6.80. With `COc1cc(CCNC(=O)c2ccc(O)c3[nH]c(-c4ccc(Cl)cc4Cl)nc23)ccc1O` [Compound 101], the pIC50 is under 6.00. Still for that read-out and setting: next, `CCCCNC(=O)c1ccc(O)c2[nH]c(-c3ccc(Cl)cc3Cl)nc12` [Compound 176]: 6.35. The same measure, in the same setting: with `Nc1ccc(CNC(=O)c2ccc(O)c3[nH]c(-c4ccc(Cl)cc4)nc23)cc1` [Compound 54] the figure was under 6.00; with `CN1CCN(CC(=O)Nc2ccc(CCNC(=O)c3ccc(O)c4[nH]c(-c5ccc(F)cc5)nc34)cc2)CC1` [Compound 127], 6.74. On the same count and under the same terms, next, `CS(=O)(=O)Nc1ccc(CCNC(=O)c2ccc(O)c3[nH]c(-c4ccccc4)nc23)cc1` [Compound 64]: 7.52; `CCc1nccn1CCCNC(=O)c1ccc(O)c2[nH]c(-c3ccc(F)cc3F)nc12` [Compound 196]: 7.70; `O=C(NCCc1ccccc1)c1ccc(O)c2[nH]c(-c3ccc(Cl)cc3)nc12` [Compound 71]: under 6.00. Consider `NCCCNC(=O)c1ccc(O)c2[nH]c(-c3ccccc3)nc12` [Compound 163], for which the pIC50 is under 6.00.

Consider `O=C(NCCc1c[nH]cn1)c1ccc(O)c2[nH]c(-c3ccc(Cl)cc3)nc12` [Compound 83], for which the pIC50 was under 6.00. The same measure, in the same setting: next, `COc1cc(CCNC(=O)c2ccc(O)c3[nH]c(-c4ccccc4)nc23)ccc1O` [Compound 62]: under 6.00. Same read-out and setting: next, `O=C(NCCCn1ccnc1)c1ccc(O)c2[nH]c(-c3ccccc3)nc12` [Compound 165]: 7.10. The same measure, in the same setting: next, `O=C(NCCc1ccccn1)c1ccc(O)c2[nH]c(-c3ccccc3)nc12` [Compound 70]: under 6.00. Consider `Nc1ccc(CCNC(=O)c2ccc(O)c3[nH]c(-c4ccc(Cl)cc4)nc23)cc1` [Compound 90], for which the pIC50 was 6.89. On the same count and under the same terms, next, `Cc1ccc(S(=O)(=O)NCCc2ccc(NC(=O)c3ccc(O)c4[nH]c(-c5ccc(F)cc5F)nc34)cc2)cc1` [Compound 38]: under 6.00. As for `O=C(NCCc1c[nH]cn1)c1ccc(O)c2[nH]c(-c3ccc(F)cc3)nc12` [Compound 125], the pIC50 was under 6.00. Same read-out and setting: next, `Cc1ccc(S(=O)(=O)Nc2ccc(NCCNC(=O)c3ccc(O)c4[nH]c(-c5ccc(F)cc5Cl)nc34)nc2)cc1` [Compound 153]: 7.30; `O=C(NCCc1ccc(O)cc1)c1ccc(O)c2[nH]c(-c3ccc(Cl)cc3Cl)nc12` [Compound 104]: under 6.00.

`Cc1ccc(S(=O)(=O)NCCc2ccc(NC(=O)c3ccc(O)c4[nH]c(-c5ccc(Cl)cc5Cl)nc34)cc2)cc1` [Compound 28]: the pIC50 was 6.13. Same read-out and setting: with `CS(=O)(=O)Nc1ccc(CCNC(=O)c2ccc(O)c3[nH]c(-c4ccc(F)cc4Cl)nc23)cc1` [Compound 143] the figure was 8.70. As for `O=C(NCCN1CCOCC1)c1ccc(O)c2[nH]c(-c3ccc(F)cc3Cl)nc12` [Compound 147], the pIC50 is 6.68. On to `CC(=O)Nc1ccc(CCNC(=O)c2ccc(O)c3[nH]c(-c4ccc(F)cc4Cl)nc23)cc1` [Compound 146], for which the pIC50 was 7.15. With `CS(=O)(=O)NCCc1ccc(NC(=O)c2ccc(O)c3[nH]c(-c4ccc(F)c(Cl)c4)nc23)cc1` [Compound 45], the pIC50 is 7.70. Same read-out and setting: with `CN(C)c1ccc(CCNC(=O)c2ccc(O)c3[nH]c(-c4ccc(F)cc4)nc23)cc1` [Compound 135] the figure was under 6.00; with `O=C(NCCCn1ccnc1-c1ccccc1)c1ccc(O)c2[nH]c(-c3ccc(Cl)cc3)nc12` [Compound 172], 6.10.

On to `O=C(NCCc1ccc(OCCN2CCOCC2)cc1)c1ccc(O)c2[nH]c(-c3ccc(Cl)cc3)nc12` [Compound 94], for which the pIC50 was under 5.30. Same read-out and setting: with `CC(=O)Nc1ccc(CCNC(=O)c2ccc(O)c3[nH]c(-c4ccc(Cl)cc4Cl)nc23)cc1` [Compound 112] the figure was 7.40.

In the case of `Cc1cn(CCCNC(=O)c2ccc(O)c3[nH]c(-c4ccc(F)cc4F)nc23)cn1` [Compound 193], the pIC50 was 7.70. Same read-out and setting: next, `O=C(NCCCN1CCCC1=O)c1ccc(O)c2[nH]c(-c3ccc(Cl)cc3Cl)nc12` [Compound 177]: 6.70; `CCN1CCN(CC(=O)Nc2ccc(CCNC(=O)c3ccc(O)c4[nH]c(-c5ccc(F)cc5)nc34)cc2)CC1` [Compound 128]: 6.82; `Cc1ccc(S(=O)(=O)NCCc2ccc(NC(=O)c3ccc(O)c4[nH]c(-c5ccc(Cl)cc5)nc34)cc2)cc1` [Compound 16]: 6.15. On the same count and under the same terms, with `O=C(NC1CCC(O)CC1)c1ccc(O)c2[nH]c(-c3ccc(Cl)cc3)nc12` (stereo not shown) [Compound 15] the figure was 6.96. The same measure, in the same setting: with `O=C(NCc1ccc([N+](=O)[O-])cc1)c1ccc(O)c2[nH]c(-c3ccccc3)nc12` [Compound 49] the figure was 6.22. For `Cc1nccn1CCCNC(=O)c1ccc(O)c2[nH]c(-c3ccc(Cl)cc3Cl)nc12` [Compound 183], the pIC50 was 7.22.

Regarding `O=C(NCCN1CCOCC1)c1ccc(O)c2[nH]c(-c3ccc(Cl)cc3Cl)nc12` [Compound 108], the negative-log IC50 (pIC50) is under 6.00. Still for that read-out and setting: with `Cc1ccc(S(=O)(=O)Nc2ccc(CCNC(=O)c3ccc(O)c4[nH]c(-c5ccc(F)c(Cl)c5)nc34)cc2)cc1` [Compound 160] the figure was under 6.00; with `O=C(NCCCn1cnc(Cl)c1Cl)c1ccc(O)c2nc(-c3ccc(Cl)cc3Cl)[nH]c12` [Compound 182], 8.10; with `O=C(NCCc1ccc([N+](=O)[O-])cc1)c1ccc(O)c2[nH]c(-c3ccc(Cl)cc3)nc12` [Compound 72], 6.92.

On to `CS(=O)(=O)NCCc1ccc(NC(=O)c2ccc(O)c3[nH]c(-c4ccc(F)cc4Cl)nc23)cc1` [Compound 41], for which the pIC50 was under 6.00. On the same count and under the same terms, with `Cc1ccc(S(=O)(=O)Nc2ccc(CCNC(=O)c3ccc(O)c4nc(-c5ccc(F)cc5)[nH]c34)cc2)cc1` [Compound 115] the figure was 7.59; with `CS(=O)(=O)Nc1ccc(CCNC(=O)c2ccc(O)c3[nH]c(-c4ccc(F)cc4)nc23)cc1` [Compound 114], 9.00.

Turning to `Cc1nccn1CCCNC(=O)c1ccc(O)c2[nH]c(-c3ccccc3)nc12` [Compound 167], the pIC50 was 7.00.

For the compound `CCCCC(=O)Nc1ccc(CCNC(=O)c2ccc(O)c3[nH]c(-c4ccc(F)cc4)nc23)cc1` [Compound 120], the pIC50 is 7.15.

The same test, now with this note: IC50 (μM).
`CCS(=O)(=O)Nc1ccc(CCNC(=O)c2ccc(O)c3nc(-c4ccc(F)cc4Cl)[nH]c23)cc1` [Compound 145]: 0.002 µM corresponded to half-maximal inhibition (IC50).

The compound `CCS(=O)(=O)Nc1ccc(CCNC(=O)c2ccc(O)c3nc(-c4ccc(Cl)cc4Cl)[nH]c23)cc1` [Compound 109] came in with an IC50 of 0.03 µM.

In general, pIC50 refers to −log10 of the IC50, conventionally taken in molar units. One may read the IC50 as the concentration at which inhibition is half-maximal. A low value points to inhibition by little substance.
